# Data as given in patent US20070049593A1 (priority 2004, published 2007).
# Structures can show the parent of a compound that is named as a salt.
# Molecular target: T1, HCV polymerase (Hepatitis C virus genotype 1b, UniProt P26663)
# T1 construct: a region encoding NS5B (J Virol 1991 March, 65(3), 1105-13, 544 amino acids after deletion of 47 amino acids on the C-terminal); 6xHis (C); made in house; host or cells: Escherichia coli
# Test: biochemical
# Set-up: species or system HCV BK strain
# Outline: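 Recombinant HCV BK-strain NS5B (C-terminal 47 aa deleted, His6-tagged, E. coli), 0.5 μg/ml, run with 5 μg/ml in vitro-transcribed RNA template (polyU/3′X), ATP/GTP/CTP 50 μM, UTP 2 μM plus [3H]UTP, pH 7.5, 25° C, 90 min. TCA-precipitated RNA counted by scintillation; IC50 from activity with vs without compound.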
# T1 sequence (P26663 2420-2963): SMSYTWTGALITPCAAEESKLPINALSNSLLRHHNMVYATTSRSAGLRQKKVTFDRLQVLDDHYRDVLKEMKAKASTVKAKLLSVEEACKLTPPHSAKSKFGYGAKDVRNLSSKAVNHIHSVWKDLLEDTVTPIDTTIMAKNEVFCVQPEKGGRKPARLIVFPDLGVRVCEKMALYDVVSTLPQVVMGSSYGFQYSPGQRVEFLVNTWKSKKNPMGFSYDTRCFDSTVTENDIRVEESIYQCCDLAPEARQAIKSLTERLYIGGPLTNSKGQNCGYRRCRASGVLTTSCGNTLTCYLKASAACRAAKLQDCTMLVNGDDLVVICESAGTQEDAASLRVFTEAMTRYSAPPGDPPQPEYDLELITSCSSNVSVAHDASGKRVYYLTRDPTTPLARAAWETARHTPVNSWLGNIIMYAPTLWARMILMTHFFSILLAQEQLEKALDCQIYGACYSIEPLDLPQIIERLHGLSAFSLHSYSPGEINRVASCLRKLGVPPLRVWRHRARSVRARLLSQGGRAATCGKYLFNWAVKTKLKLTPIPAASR
row,Compound,IC50 [nM]
1,"CCOCC1CCCN(CCN2CCn3c(c(C4CCCCC4)c4ccc(C(=O)O)cc43)-c3ccc(Cl)cc32)C1 (stereo not shown) [Example 1-391, 3-chloro-13-cyclohexyl-5-[2-(3-ethoxymethylpiperidin-1-yl)ethyl]-6,7-dihydro-5H-benzo[5,6][1,4]diazepino[7,1-a]indole-10-carboxylic acid dihydrochloride]",< 100
2,"CCOCC1CCCN(CCN2CCn3c(c(C4CCCCC4)c4ccc(C(=O)O)cc43)-c3ccc(C)cc32)C1 (stereo not shown) [Example 1-392, 13-cyclohexyl-5-[2-(3-ethoxymethylpiperidin-1-yl)ethyl]-3-methyl-6,7-dihydro-5H-benzo[5,6][1,4]diazepino[7,1-a]indole-10-carboxylic acid dihydrochloride]",< 100
3,"CC(C)OC1CCCN(CCN2CCn3c(c(C4CCCCC4)c4ccc(C(=O)O)cc43)-c3ccc(Cl)cc32)C1 (stereo not shown) [Example 1-393, 3-chloro-13-cyclohexyl-5-[2-(3-isopropoxypiperidin-1-yl)ethyl]-6,7-dihydro-5H-benzo[5,6][1,4]diazepino[7,1-a]indole-10-carboxylic acid monohydrochloride]",< 100
4,"Cc1ccc2c(c1)N(CCN1CCCC(OC(C)C)C1)CCn1c-2c(C2CCCCC2)c2ccc(C(=O)O)cc21 (stereo not shown) [Example 1-394, 13-cyclohexyl-5-[2-(3-isopropoxypiperidin-1-yl)ethyl]-3-methyl-6,7-dihydro-5H-benzo[5,6][1,4]diazepino[7,1-a]indole-10-carboxylic acid monohydrochloride]",< 100
5,"CC(C)OC1CCCN(CCN2CCn3c(c(C4CCCCC4)c4ccc(C(=O)O)cc43)-c3ccccc32)C1 (stereo not shown) [Example 1-395, 13-cyclohexyl-5-[2-(3-isopropoxypiperidin-1-yl)ethyl]-6,7-dihydro-5H-benzo[5,6][1,4]diazepino[7,1-a]indole-10-carboxylic acid monohydrochloride]",< 100
6,"CC(C)N1CCCC(CCCN2CCn3c(c(C4CCCCC4)c4ccc(C(=O)O)cc43)-c3ccc(Cl)cc32)C1 (stereo not shown) [Example 1-396, 3-chloro-13-cyclohexyl-5-[3-(1-isopropylpiperidin-3-yl)propyl]-6,7-dihydro-5H-benzo[5,6][1,4]diazepino[7,1-a]indole-10-carboxylic acid dihydrochloride]",< 100
7,"COCC[C@@H]1CCCN(CCN2CCn3c(c(C4CCCCC4)c4ccc(C(=O)O)cc43)-c3ccc(Cl)cc32)C1 [Example 1-397, 3-chloro-13-cyclohexyl-5-{2-[(S)-3-(2-methoxyethyl)piperidin-1-yl]ethyl}-6,7-dihydro-5H-benzo[5,6][1,4]diazepino[7,1-a]indole-10-carboxylic acid dihydrochloride]",< 100
8,"COCC[C@H]1CCCN(CCN2CCn3c(c(C4CCCCC4)c4ccc(C(=O)O)cc43)-c3ccc(Cl)cc32)C1 [Example 1-398, 3-chloro-13-cyclohexyl-5-{2-[(R)-3-(2-methoxyethyl)piperidin-1-yl]ethyl}-6,7-dihydro-5H-benzo[5,6][1,4]diazepino[7,1-a]indole-10-carboxylic acid dihydrochloride]",< 100
9,"O=C(O)c1ccc2c(C3CCCC3)c3n(c2c1)CCN(CCN1CCCCC1)c1ccccc1-3 [Example 1-399, 13-cyclopentyl-5-[2-(piperidin-1-yl)ethyl]-6,7-dihydro-5H-benzo[5,6][1,4]diazepino[7,1-a]indole-10-carboxylic acid monohydrochloride]",< 100
10,"CCN1CCCC(OCCN2CCn3c(c(C4CCCCC4)c4ccc(C(=O)O)cc43)-c3ccc(Cl)cc32)C1 (stereo not shown) [Example 1-400, 3-chloro-13-cyclohexyl-5-[2-(1-ethylpiperidin-3-yloxy)ethyl]-6,7-dihydro-5H-benzo[5,6][1,4]diazepino[7,1-a]indole-10-carboxylic acid dihydrochloride]",< 100
11,"Cc1nc(COc2ccc3c(c2)N(CCN2CCCCC2)CCn2c-3c(C3CCCCC3)c3ccc(C(=O)O)cc32)cs1 [Example 1-401, 13-cyclohexyl-3-(2-methylthiazol-4-ylmethoxy)-5-[2-(piperidin-1-yl)ethyl]-6,7-dihydro-5H-benzo[5,6][1,4]diazepino[7,1-a]indole-10-carboxylic acid dihydrochloride]",< 100
12,"Cc1nc(C)c(COc2ccc3c(c2)N(CCN2CCCCC2)CCn2c-3c(C3CCCCC3)c3ccc(C(=O)O)cc32)s1 [Example 1-402, 13-cyclohexyl-3-(2,4-dimethylthiazol-5-ylmethoxy)-5-[2-(piperidin-1-yl)ethyl]-6,7-dihydro-5H-benzo[5,6][1,4]diazepino[7,1-a]indole-10-carboxylic acid dihydrochloride]",< 100
13,"CCN(CCCN1CCn2c(c(C3CCCCC3)c3ccc(C(=O)O)cc32)-c2ccc(Cl)cc21)C(C)C [Example 1-403, 3-chloro-13-cyclohexyl-5-[3-(N-ethyl-N-isopropylamino)propyl]-6,7-dihydro-5H-benzo[5,6][1,4]diazepino[7,1-a]indole-10-carboxylic acid dihydrochloride]",< 100
14,"O=C(O)c1ccc2c(C3CCCCC3)c3n(c2c1)CCN(CC[C@@H]1CCCN(C2CCCC2)C1)c1cc(Cl)ccc1-3 [Example 1-404, 3-chloro-13-cyclohexyl-5-[2-((S)-1-cyclopentylpiperidin-3-yl)ethyl]-6,7-dihydro-5H-benzo[5,6][1,4]diazepino[7,1-a]indole-10-carboxylic acid dihydrochloride]",< 100
15,"CC(C)OCC1CCCN(CCN2CCn3c(c(C4CCCCC4)c4ccc(C(=O)O)cc43)-c3ccccc32)C1 (stereo not shown) [Example 1-405, 13-cyclohexyl-5-[2-(3-isopropoxymethylpiperidin-1-yl)ethyl]-6,7-dihydro-5H-benzo[5,6][1,4]diazepino[7,1-a]indole-10-carboxylic acid dihydrochloride]",< 100
16,"CC(C)OCC1CCCN(CCN2CCn3c(c(C4CCCCC4)c4ccc(C(=O)O)cc43)-c3ccc(Cl)cc32)C1 (stereo not shown) [Example 1-406, 3-chloro-13-cyclohexyl-5-[2-(3-isopropoxymethylpiperidin-1-yl)ethyl]-6,7-dihydro-5H-benzo[5,6][1,4]diazepino[7,1-a]indole-10-carboxylic acid dihydrochloride]",< 100
17,"Cc1ccc2c(c1)N(CCN1CCCC(COC(C)C)C1)CCn1c-2c(C2CCCCC2)c2ccc(C(=O)O)cc21 (stereo not shown) [Example 1-407, 13-cyclohexyl-5-[2-(3-isopropoxymethylpiperidin-1-yl)ethyl]-3-methyl-6,7-dihydro-5H-benzo[5,6][1,4]diazepino[7,1-a]indole-10-carboxylic acid dihydrochloride]",< 100
18,"O=C(O)c1ccc2c(C3CCCCC3)c3n(c2c1)CCN(CC[C@H]1CCCN(C2CCCC2)C1)c1cc(Cl)ccc1-3 [Example 1-408, 3-chloro-13-cyclohexyl-5-[2-((R)-1-cyclopentylpiperidin-3-yl)ethyl]-6,7-dihydro-5H-benzo[5,6][1,4]diazepino[7,1-a]indole-10-carboxylic acid dihydrochloride]",< 100
19,"COCC[C@H]1CCCN(CCN2CCn3c(c(C4CCCCC4)c4ccc(C(=O)O)cc43)-c3ccc(C)cc32)C1 [Example 1-409, 13-cyclohexyl-5-{2-[(R)-3-(2-methoxyethyl)piperidin-1-yl]ethyl}-3-methyl-6,7-dihydro-5H-benzo[5,6][1,4]diazepino[7,1-a]indole-10-carboxylic acid dihydrochloride]",< 100
20,"CCCN1CCCC(CCN2CCn3c(c(C4CCCCC4)c4ccc(C(=O)O)cc43)-c3ccc(C)cc32)C1 (stereo not shown) [Example 1-410, 13-cyclohexyl-3-methyl-5-[2-(1-propylpiperidin-3-yl)ethyl]-6,7-dihydro-5H-benzo[5,6][1,4]diazepino[7,1-a]indole-10-carboxylic acid dihydrochloride]",< 100
21,"CCN1CCCC(CCCN2CCn3c(c(C4CCCCC4)c4ccc(C(=O)O)cc43)-c3ccc(Cl)cc32)C1 (stereo not shown) [Example 1-411, 3-chloro-13-cyclohexyl-5-[3-(1-ethylpiperidin-3-yl)propyl]-6,7-dihydro-5H-benzo[5,6][1,4]diazepino[7,1-a]indole-10-carboxylic acid dihydrochloride]",< 100
22,"O=C(O)c1ccc2c(C3CCCCC3)c3n(c2c1)CCN(CCCC1CCCN(C2CCCC2)C1)c1cc(Cl)ccc1-3 (stereo not shown) [Example 1-412, 3-chloro-13-cyclohexyl-5-[3-(1-cyclopentylpiperidin-3-yl)propyl]-6,7-dihydro-5H-benzo[5,6][1,4]diazepino[7,1-a]indole-10-carboxylic acid dihydrochloride]",< 100
23,"COCC[C@@H]1CCCN(CCN2CCn3c(c(C4CCCCC4)c4ccc(C(=O)O)cc43)-c3ccc(C)cc32)C1 [Example 1-413, 13-cyclohexyl-5-{2-[(S)-3-(2-methoxyethyl)piperidin-1-yl]ethyl}-3-methyl-6,7-dihydro-5H-benzo[5,6][1,4]diazepino[7,1-a]indole-10-carboxylic acid dihydrochloride]",< 100
24,"CC(C)N1CCCC(CCN2CCn3c(c(C4CCCC4)c4ccc(C(=O)O)cc43)-c3ccc(Cl)cc32)C1 (stereo not shown) [Example 1-414, 3-chloro-13-cyclopentyl-5-[2-(1-isopropylpiperidin-3-yl)ethyl]-6,7-dihydro-5H-benzo[5,6][1,4]diazepino[7,1-a]indole-10-carboxylic acid monohydrochloride]",< 100
25,"O=C(O)c1ccc2c(C3CCCCC3)c3n(c2c1)CCN(CCCCN1CCCCC1)c1cc(Cl)ccc1-3 [Example 1-415, 3-chloro-13-cyclohexyl-5-[4-(piperidin-1-yl)butyl]-6,7-dihydro-5H-benzo[5,6][1,4]diazepino[7,1-a]indole-10-carboxylic acid]",< 100
